Experimental data taken from US20080182877A1, “Rimonabant forms and methods of making the same” (priority 2007, published 2008).
Where a name gives a salt, the structure may show the parent alone. Values belong to the compound of their own block, whether it stands above or below them.

Legend:
Format in all cases: physicochemical
[1] = Storage stability of solid forms at room temperature
Procedure: In detail, rimonabant base may be isolated in a new solid state crystalline hydrate form, designated as the Form III. Form III is characterized by the XRPD spectrum having characteristic peaks at angles of around 9.29°, 10.49°, 13.52°, 15.25°, 17.78° using a 2-theta scale. […] The hydrated Form III is stable during storage at room temperature.
In general, a mixture of the hydrated Form III and the methanol solvate Form IV may be obtained after a crystallization of rimonabant base from a methanol solvent containing water. Mixtures of the hydrated Form III and the methanol solvate Form IV may also be obtained by crystallizing rimonabant base and rimonabant hydrochloride from methanol/water mixtures. A longer crystallization time, a slower cooling, and a lower solute concentration each generally promote the crystallization of Form III over Form IV. […] The methanolate Form IV is thus a thermodynamically unstable form. A mixture of Forms III and Form IV is also useful for making particulated amorphous rimonabant base.
Rimonabant base may also be isolated in a propanol solvate form, designated as the Form VI. Form VI is characterized by the following XRPD having characteristic peaks at angles of around 6.73°, 8.36°, 9.92°, 11.98°, 13.45°, 14.34°, 18.14°, 21.43°, 21.88°, 24.13°, 31.03° and 32.28° using a 2-theta scale. […] Instead, the known Form I of the crystalline anhydrous rimonabant is provided after a crystallization from 2-propanol. Form VI may be obtained by crystallizing rimonabant base from a 1-propanol solvent. For example, the crystallization may be induced by a slow evaporation of the 1-propanol solvent.

Solubility in water = settings: compared with the known Form I
From the text: In general, only the hydrated Form III rimonabant is obtainable by a process employing water as the solvent. The other known solvent-free forms I and II are made by a process employing solely an organic solvent. The Form III is thus an advantageous form from technological and ecological reasons.

[2] = Thermal desolvation of hydrates/solvates by heating/drying; settings: among Form III, IV, V and VI; temperature higher than 80° C. preferable
From the text: The conversion of any of the above hydrates and/or solvates, as well as mixtures thereof, to the particulated amorphous rimonabant base may be performed by a heating (drying) thereof at an enhanced temperature (e.g., higher than room temperature), preferably at diminished pressure (e.g., lower than atmospheric pressure). The transformation into the particulated amorphous rimonabant base may be accomplished by the fact that the crystalline lattice of any of the solvates and/or hydrates is thermally unstable and may collapse at an enhanced temperature without any further recrystallization into the most thermodynamically stable form of rimonabant, the Form I. Accordingly the Form I cannot apparently be converted into the amorphous form by such a simple transformation.
The fastest loss of the bound solvent in combination with amorphization occurs for the ethanol solvate, where the heating/drying of the product takes place at 60° C. or more, generally 60-80° C. Accordingly, the ethanol solvate can be used to obtain powderized amorphous rimonabant base. For other hydrates/solvates, e.g., for the methanolate Form IV, propanolate Form VI, hydrate Form III or hydrate Form V, a temperature higher than 80° C. is preferable to facilitate the conversion into the particulate amorphous rimonabant base. […]

[3] = Stability of the salt towards solvents (crystallization or stirring of a suspension)
From the text: A known rimonabant solvate form, a rimonabant ethanol solvate, is disclosed in U.S. Pat. No. 5,624,941 (Example 212). According to U.S. Pat. No. 5,624,941, this ethanol solvate may be made by crystallizing rimonabant from ethanol. It has now been discovered that the same rimonabant ethanol solvate may be obtained by a novel solvent mediated transformation, such as by suspending and stirring the anhydrous rimonabant base in a liquid comprising ethanol. For example, the liquid may be an ethanol/water mixture, e.g. having a 3:1 (V/V) ratio. Also the crystallization of rimonabant hydrochloride from an ethanol/water mixture may provide for the known ethanolate of rimonabant base, which is another process not disclosed in the prior art and indicates the instability of rimonabant hydrochloride towards solvents comprising ethanol. As described more fully below, this ethanol solvate can be used to form amorphous rimonabant.
In this regard, the rimonabant salt can precipitate as the base, either by addition of a neutralizing base or spontaneously, and/or can precipitate as the salt and convert to the base by a solvent mediated transformation. Accordingly, stirring a suspension of rimonabant hydrochloride in a solvent comprising water (e.g. water/methanol=30:1 V/V) at ambient temperature provides for solvent-mediated polymorphic transformation yielding the Form III of rimonabant base. […]

stability during storage [1]: stable
SMILES: Cc1c(C(=O)NN2CCCCC2)nn(-c2ccc(Cl)cc2Cl)c1-c1ccc(Cl)cc1 [Form III, Rimonabant]
solubility in water (Solubility in water): same solubility in water as the known Form I

conversion during storage ([1]; in the presence of air humidity): may be converted into Form III
SMILES: Cc1c(C(=O)NN2CCCCC2)nn(-c2ccc(Cl)cc2Cl)c1-c1ccc(Cl)cc1 [Form IV, Rimonabant]

stability during storage [1]: sufficiently stable
relative stability to heating/drying (desolvation) [2]: most stable
SMILES: Cc1c(C(=O)NN2CCCCC2)nn(-c2ccc(Cl)cc2Cl)c1-c1ccc(Cl)cc1 [Form VI, Rimonabant]

stability towards solvents comprising ethanol ([3]; crystallization from an ethanol/water mixture gives the ethanolate of the base): instability
stability towards solvents comprising water ([3]; e.g. water/methanol 30:1 V/V, ambient temperature, yields Form III of the base): not stable
SMILES: Cc1c(C(=O)NN2CCCCC2)nn(-c2ccc(Cl)cc2Cl)c1-c1ccc(Cl)cc1 [rimonabant hydrochloride]
